Measured values reported in patent US8815535B2, “Disk diffusion assay for oritavancin” (The Medicines Company, priority 2011, dated 2014).
Values after ≈ are worked out from the molar mass of the structure shown.

Assays:
Assay type in all cases: cell-based
[1] = test system: VISA NRS3; assay: Broth microdilution (BMD) MIC; details: Staphylococcus aureus, read-out: Oritavancin BMD MIC
Source text: (§1) To date, only the broth microdilution (BMD) minimal inhibitory concentration (MIC) test is a reference method accepted by the Clinical Laboratory Standards Institute (CLSI) for use in determining the susceptibility of a bacterial isolate to oritavancin (Methods for Dilution Antimicrobial Susceptibility Tests for Bacteria That Grow Aerobically; Approved Standard, CLSI document M7-A8, 8th ed. Clinical and Laboratory Standards Institute, Wayne, Pa. 2009; Performance Standards for Antimicrobial Susceptibility Testing; Eighteenth Informational Supplement, CLSI document M100-S18, 7th ed. Clinical and Laboratory Standards Institute, Wayne, Pa. 2008).

[2] = test system: MSSA U933236; assay: Broth microdilution (BMD) MIC; details: Staphylococcus aureus, read-out: Oritavancin BMD MIC
Source text: as §1

[3] = test system: MRSA Q670505; assay: Broth microdilution (BMD) MIC; details: Staphylococcus aureus, read-out: Oritavancin BMD MIC
Source text: as §1

[4] = test system: MRSA NRS121; assay: Broth microdilution (BMD) MIC; details: Staphylococcus aureus, read-out: Oritavancin BMD MIC
Source text: as §1

[5] = test system: MRSA U933237; assay: Broth microdilution (BMD) MIC; details: Staphylococcus aureus, read-out: Oritavancin BMD MIC
Source text: as §1

[6] = test system: VISA Mu50 (ATCC 700699); assay: Broth microdilution (BMD) MIC; details: Staphylococcus aureus; VISA ATCC 700699 (Mu50); read-out: Oritavancin BMD MIC
Source text: as §1

[7] = test system: MRSA T998608; assay: Broth microdilution (BMD) MIC; details: Staphylococcus aureus, read-out: Oritavancin BMD MIC
Source text: as §1

[8] = test system: MSSA S815247; assay: Broth microdilution (BMD) MIC; details: Staphylococcus aureus, read-out: Oritavancin BMD MIC
Source text: as §1

[9] = test system: MSSA U148267; assay: Broth microdilution (BMD) MIC; details: Staphylococcus aureus, read-out: Oritavancin BMD MIC
Source text: as §1

[10] = test system: MSSA T972018; assay: Broth microdilution (BMD) MIC; details: Staphylococcus aureus, read-out: Oritavancin BMD MIC
Source text: as §1

[11] = test system: MSSA T759545; assay: Broth microdilution (BMD) MIC; details: Staphylococcus aureus, read-out: Oritavancin BMD MIC
Source text: as §1

[12] = test system: MRSA U260847; assay: Broth microdilution (BMD) MIC; details: Staphylococcus aureus, read-out: Oritavancin BMD MIC
Source text: as §1

[13] = test system: MSSA ATCC 29213; assay: Broth microdilution (BMD) MIC; details: Staphylococcus aureus, read-out: Oritavancin BMD MIC
Source text: as §1

[14] = test system: MRSA U784439; assay: Broth microdilution (BMD) MIC; details: Staphylococcus aureus, read-out: Oritavancin BMD MIC
Source text: as §1

[15] = test system: MRSA NRS121-ORI^RS; assay: Broth microdilution (BMD) MIC; details: Staphylococcus aureus; MRSA NRS121-ORI^RS (oritavancin reduced-susceptibility isolate)
Source text: as §1

[16] = test system: MRSA V257345; assay: Broth microdilution (BMD) MIC; details: Staphylococcus aureus, read-out: Oritavancin BMD MIC
Source text: as §1

[17] = test system: MRSA Q141067; assay: Broth microdilution (BMD) MIC; details: Staphylococcus aureus, read-out: Oritavancin BMD MIC
Source text: as §1

[18] = test system: MRSA ATCC 33591; assay: Broth microdilution (BMD) MIC; details: Staphylococcus aureus, read-out: Oritavancin BMD MIC
Source text: as §1

[19] = test system: hVISA NRS36; assay: Broth microdilution (BMD) MIC; details: Staphylococcus aureus, read-out: Oritavancin BMD MIC
Source text: as §1

[20] = test system: MRSA T998528; assay: Broth microdilution (BMD) MIC; details: Staphylococcus aureus, read-out: Oritavancin BMD MIC
Source text: as §1

[21] = test system: VISA NRS402; assay: Broth microdilution (BMD) MIC; details: Staphylococcus aureus, read-out: Oritavancin BMD MIC
Source text: as §1

[22] = test system: MSSA V406985; assay: Broth microdilution (BMD) MIC; details: Staphylococcus aureus, read-out: Oritavancin BMD MIC
Source text: as §1

[23] = test system: MSSA S815246; assay: Broth microdilution (BMD) MIC; details: Staphylococcus aureus, read-out: Oritavancin BMD MIC
Source text: as §1

[24] = test system: MRSA NRS123-ORI^RS; assay: Broth microdilution (BMD) MIC; details: Staphylococcus aureus; MRSA NRS123-ORI^RS (oritavancin reduced-susceptibility isolate)
Source text: as §1

[25] = test system: MRSA U206056; assay: Broth microdilution (BMD) MIC; details: Staphylococcus aureus, read-out: Oritavancin BMD MIC
Source text: as §1

[26] = test system: MRSA T998608; assay: Disk diffusion assay (zone of inhibition); details: Staphylococcus aureus, 20 μl of 1.25 mg/ml in 4% P80/Span 80 (1:1), calcium alginate swabs, dried overnight, duplicate, read-out: Inhibition zone diameter
Experimental: (§2) Oritavancin powder was dissolved in freshly-prepared solutions of the indicated excipients at concentrations of 0.625, 1.25, 2.5, 5, and 10 mg/ml (adjusted for potency based on lot 875561L00 purity of 83.1%) by vortexing for a minimum of 5 minutes. Oritavancin solutions in the various excipients, while not visually clear, were free from any apparent particulates as assessed visually. Sterile Oxoid blank disks were impregnated with 20 μl of these oritavancin solutions, resulting in oritavancin disk loads ranging from 12.5 to 200 μg. Unless indicated otherwise, disks were allowed to dry overnight at room temperature prior to use.
(§3) Bacterial suspensions from isolated colonies on overnight cation-adjusted Mueller Hinton agar plates were prepared in sterile saline and adjusted to an optical density of 0.1 at 600 nm Standard cation-adjusted Mueller Hinton agar plates (90 mm diameter) were seeded with bacterial suspensions by initially swabbing the center of plate then moving outward. Swabbing was continued at a right angle and then at an oblique angle to the first and second swabs. Disks were placed upon the seeded plates with sterile forceps. Plates were then incubated overnight at 37° C. and inhibition zone diameters were measured with a ruler and reported in millimeters.

[27] = test system: MSSA U148267; assay: Disk diffusion assay (zone of inhibition); details: Staphylococcus aureus, 20 μl of 1.25 mg/ml in 4% P80/Span 80 (1:1), calcium alginate swabs, dried overnight, duplicate, read-out: Inhibition zone diameter
Experimental: as §2, §3

[28] = test system: MSSA T759545; assay: Disk diffusion assay (zone of inhibition); details: Staphylococcus aureus, 20 μl of 1.25 mg/ml in 4% P80/Span 80 (1:1), calcium alginate swabs, dried overnight, duplicate, read-out: Inhibition zone diameter
Experimental: as §2, §3

[29] = test system: MRSA V406957; assay: Disk diffusion assay (zone of inhibition); details: Staphylococcus aureus, 20 μl of 1.25 mg/ml in 4% P80/Span 80 (1:1), calcium alginate swabs, dried overnight, duplicate, read-out: Inhibition zone diameter
Experimental: as §2, §3

[30] = test system: MSSA Q141066; assay: Disk diffusion assay (zone of inhibition); details: Staphylococcus aureus, 20 μl of 1.25 mg/ml in 4% P80/Span 80 (1:1), calcium alginate swabs, dried overnight, duplicate, read-out: Inhibition zone diameter
Experimental: as §2, §3

[31] = test system: MRSA U784439; assay: Disk diffusion assay (zone of inhibition); details: Staphylococcus aureus, 20 μl of 1.25 mg/ml in 4% P80/Span 80 (1:1), calcium alginate swabs, dried overnight, duplicate, read-out: Inhibition zone diameter
Experimental: as §2, §3

[32] = test system: MRSA ATCC 33591; assay: Disk diffusion assay (zone of inhibition); details: Staphylococcus aureus, 25 μg (1.25 mg/ml) in 4% P80/Span 80 (1:1), dried overnight, read-out: Inhibition zone diameter
Experimental: as §2, §3

[33] = test system: MRSA T998528; assay: Disk diffusion assay (zone of inhibition); details: Staphylococcus aureus, 20 μl of 1.25 mg/ml in 4% P80/Span 80 (1:1), calcium alginate swabs, dried overnight, duplicate, read-out: Inhibition zone diameter
Experimental: as §2, §3

[34] = test system: MSSA V406985; assay: Disk diffusion assay (zone of inhibition); details: Staphylococcus aureus, 20 μl of 1.25 mg/ml in 4% P80/Span 80 (1:1), calcium alginate swabs, dried overnight, duplicate, read-out: Inhibition zone diameter
Experimental: as §2, §3

[35] = test system: MRSA V288615; assay: Disk diffusion assay (zone of inhibition); details: Staphylococcus aureus, 20 μl of 1.25 mg/ml in 4% P80/Span 80 (1:1), calcium alginate swabs, dried overnight, duplicate, read-out: Inhibition zone diameter
Experimental: as §2, §3

SMILES: CN[C@H](CC(C)C)C(=O)N[C@H]1C(=O)N[C@@H](CC(N)=O)C(=O)N[C@H]2C(=O)N[C@H]3C(=O)N[C@H](C(=O)N[C@H](C(=O)O)c4cc(O)cc(O)c4-c4cc3ccc4O)[C@H](O[C@H]3C[C@](C)(N)[C@@H](O)[C@H](C)O3)c3ccc(c(Cl)c3)Oc3cc2cc(c3O[C@@H]2O[C@H](CO)[C@@H](O)[C@H](O)[C@H]2O[C@H]2C[C@](C)(NCc3ccc(-c4ccc(Cl)cc4)cc3)[C@@H](O)[C@H](C)O2)Oc2ccc(cc2Cl)[C@H]1O [oritavancin, N-(4-(4-chlorophenyl)benzyl)A82846B]
- MIC [1]: 1 µg/mL (≈ 0.558 µM)
- MIC [2]: 0.06 µg/mL (≈ 0.0335 µM)
- MIC [3]: 0.25 µg/mL (≈ 0.139 µM)
- MIC [4]: 0.06 µg/mL (≈ 0.0335 µM)
- MIC [5]: 0.12 µg/mL (≈ 0.0669 µM)
- MIC [6]: 1 µg/mL (≈ 0.558 µM)
- MIC [7]: 0.03 µg/mL (≈ 0.0167 µM)
- MIC [8]: 0.015 µg/mL (≈ 0.00837 µM)
- MIC [9]: 0.015 µg/mL (≈ 0.00837 µM)
- MIC [10]: 0.5 µg/mL (≈ 0.279 µM)
- MIC [11]: 0.015 µg/mL (≈ 0.00837 µM)
- MIC [12]: 0.06 µg/mL (≈ 0.0335 µM)
- MIC [13]: 0.06 µg/mL (≈ 0.0335 µM)
- MIC [14]: 0.03 µg/mL (≈ 0.0167 µM)
- MIC [15]: 0.5 µg/mL (≈ 0.279 µM)
- MIC [16]: 0.12 µg/mL (≈ 0.0669 µM)
- MIC [17]: 0.015 µg/mL (≈ 0.00837 µM)
- MIC [18]: 0.06 µg/mL (≈ 0.0335 µM)
- MIC [19]: 1 µg/mL (≈ 0.558 µM)
- MIC [20]: 0.015 µg/mL (≈ 0.00837 µM)
- MIC [21]: 1 µg/mL (≈ 0.558 µM)
- MIC [22]: 0.12 µg/mL (≈ 0.0669 µM)
- MIC [23]: 0.03 µg/mL (≈ 0.0167 µM)
- MIC [24]: 0.25 µg/mL (≈ 0.139 µM)
- MIC [25]: 0.25 µg/mL (≈ 0.139 µM)
- zone of inhibition at 1250 µg/mL [26]: 22 mm
- zone of inhibition at 1250 µg/mL [27]: 21 mm
- zone of inhibition at 1250 µg/mL [28]: 22 mm
- zone of inhibition at 1250 µg/mL [29]: 21 mm
- zone of inhibition at 1250 µg/mL [30]: 20 mm
- zone of inhibition at 1250 µg/mL [31]: 20 mm
- zone of inhibition at 25 µg/disc [32]: 22 mm
- zone of inhibition at 1250 µg/mL [33]: 21 mm
- zone of inhibition at 1250 µg/mL [34]: 24 mm
- zone of inhibition at 1250 µg/mL [35]: 23 mm
